Experimental data as given in patent EP0004835A1, “Ethanolamine compounds, processes for their preparation, pharmaceutical preparations containing them and their medicinal use” (priority 1978, dated 1979).
Where two headings read alike, the source gives them in different places.

How the values were obtained:
[1] = test system: histamine induced bronchospasm; assay: Bronchospasmolytic effect in anaesthetized cat (simultaneous recording); assay type: in vivo; settings: narcotized cat, i.v. (brachial vein); based on molar dose giving 30 % decrease of histamine induced bronchospasm; terbutaline = 1; hydrochloride
Protocol: A. Simultaneous recording of bronchospasmolytic effect, tremorogenic effect and heart stimulating effect
The bronchospasmolytic effect and the tremorogenic effect were measured simultaneously in anaesthetized cat.
The method used is described in detail by 0 A T Olsson, Acta pharmacol et toxicol 34, 106-114 (1974).
Cats weighing 2.5-3.5 kg are anaesthetized with pento- barbital (mebumalum NFN) at first by an intraperitoneal injection (30 mg/kg) and afterwards by continuous intravenous infusion to keep the level of anaesthesia constant during the experiment.
The trachea is cannulated and the lungs inflated with room air by means of a constant volume Braun-respirator. The frequency is 15-20 per min and the tidal volume 8-10 ml per kg, or just sufficient to suppress spontaneous breathing movements and to give about 150 ml/kg/min. The change in tidal volume from administered constricting agents is measured as the amount of air overflow from the delivery of a constant volume to a fixed respiration. The pressure is determined by a water (60-70 mm) pressure threshold and respiratory overflow determined by means of a Grass-volumetric pressure transducer PT 5A. Bronchial tone is increased by inhalation of a histamine aerosol generated in a Roth-Petersen nebulizer from a solution containing 0.1-0.3 mg/ml of histamine and made up to 5 % by glycerol. The nebulizer is connected to the inlet of the respirator when bronchospasm is to be produced. When the respiratory overflow has reached an even level, .the compound to be tested for bronchorealxing activity is injected into the brachial vein.
The bronchospasmolytic effect is measured as the dose, calculated in moles per kg bodyweight of the test animal, which gives 30 % decrease of the histamine induced bronchospasm. […] The heart stimulating effect is measured as the dose, calculated in moles per kg bodyweight of the test animal, which gives 25 % increase in the heart frequency.

[2] = test system: histamine induced bronchoconstriction; assay: Bronchospasmolytic activity at oral and subcutaneous administration, histamine aerosol, unanaesthetized guinea-pigs; assay type: in vivo; settings: for ED50: Cavia porcellus, read-out: Dose protecting 50 % of the test animals against the histamine aerosol during more than 4 minutes (ED50)
Protocol: .The bronchospasmolytic activity of a compound of the invention at oral administration was tested on guinea-pigs. The compound according to Example 1 having the code designation D 2343, was tested. Terbutaline was used as reference substance.
The bronchospasmolytic effect was tested as the inhibitory effect on histamine induced bronchoconstriction in unanaesthetized guinea-pigs.
The test animals were exposed to a histamine mist generated by a Roth-Petersen nebulizer from a solution of 0.3 mg/ml of histamine-chloride.
Guinea-pigs, strain Dunkin-Hartle.y, both sexes, 190-250 g were used. Saline treated control animals start a forced and irregular breathing after less than 4 minutes exposure to the aerosol. Drug-treated animals sustaining the histamine aerosol 4 minutes without a breathing influence are regarded as protected. In the study with oral administration, the animals were starved for about 15 hours with water ad libitum before D 2343 or terbutaline was administered by a stomach tube.
Each compound was administered to 30-40 animals.
In the investigation with oral administration the time from drug administration to exposure of the animal to histamine was 30 minutes.
The ED50 doses are calculated on molar basis in moles per kg bodyweight of the test animal.

## COc1ccccc1CCC(C)(C)NCC(O)c1ccc(O)cc1.Cl (centres unmarked) [D 2343, 1-(4-hydroxyphenyl)--2-[1,1-dimethyl-3-(2-methoxyphenyl)propylamino]-ethanol hydrochloride]
[1]
  Bronchospasmolytic effect in relation to the bronchospasmolytic effect of terbutaline: 2.9 ±0.6
[2]; 0.5 h, Oral administration (stomach tube, starved), 30 minutes before histamine
  ED50: 2.51 ± 0.39 µmol/kg
[2]; sc, 0.25 h, Subcutaneous administration, 15 minutes before histamine challenge
  ED50: 0.34 ± 0.06 µmol/kg
[2]; oral administration
  times more active than terbutaline: 2.1 times
[2]; subcutaneous administration
  times more active than terbutaline: 2.7 times
